Experiments:
rats [1] = experiment: cardiovascular and respiratory effects after intravenous administration in rats; assay type: in vivo, rat; settings: n=3
Text: (§1) In separate experiments, the effects of bethanechol (saturated solution, see above) were compared with those of physostigmine (1% solution in saline) on cardiovascular and respiratory parameters when applied to the buccal cavity of rats. Anaesthesia was induced in animals with urethane (1.75 g/kg given i.p.). Each animal was artificially ventilated via a tracheal cannula that was connected to a Fleisch (size 00) pneumotachograph and a pressure transducer (pressure range ±2 cm H2O). […] The left carotid artery was cannulated for recording blood pressure and heart rate, and the left jugular vein cannulated for drug administration. For topical administration, after 15-30 minutes a Parafilm ball was inserted into the back of the oral cavity to prevent the loss of solution into the oesophagus and airways. At T−10 minutes a cotton wool ball was inserted into the oral cavity and 10 minutes later it was removed and excess saliva wiped away. At T=O minutes physostigmine (1%, 10 microliters each on left and right sides) or bethanechol (10 microliters each on left and right sides) were instilled using a pipette. At T=10 minutes, another cotton wool ball was inserted into the oral cavity, 10 min later, it was removed and the excess saliva wiped away. The effects on baseline cardiovascular and respiratory parameters were recorded over 90 minutes. Physostigmine produced changes in all measured parameters, the mean maximum effects seen during the observation period were for pulmonary inflation pressure 44% increase, mean arterial pressure 17% decrease and heart rate 9.3% decrease (all n=2). In contrast, bethanechol produced minimal (and not significant) effects on any of these parameters, the mean maximum changes being 0% change, 3% decrease and 1% decrease for pulmonary inflation pressure, mean arterial pressure and heart rate respectively (n=3).
For an additional comparison, the effects of bethanechol (prepared in saline, dosing volume 0.1 ml) over a dose range of 0.3 micrograms/kg to 300 micrograms/kg administered intravenously were studied in rats. Doses were administered in ascending order to each animal (n=3) and cardiovascular and respiratory effects monitored over 5 minutes or until the recorded parameter had returned to baseline (whichever was the later). […] The effects observed with bethanechol at 300 micrograms/kg were mean arterial pressure 72% decrease, heart rate 69% decrease and pulmonary inflation pressure 30% increase.

male Sprague-Dawley rats = experiment: efficacy study: saliva production after topical instillation into the oral cavity of anaesthetised rats; assay type: in vivo, rat; settings: saturated solution
Protocol: In the experiments outlined below, bethanechol chloride for buccal administration was prepared as a saturated solution in a solvent mixture comprising PEG 400, glycerol, ethanol and sodium phosphate buffer. Specific solvent amounts were 30% PEG 400, 30% glycerol, 20% ethanol with 20% phosphate buffer (formed by mixing 50 ml of 0.1M sodium phosphate monobasic (monohydrate) with sufficient 0.1M sodium phosphate dibasic (heptahydrate) until a pH of 5.5 was achieved). Bethanechol chloride was present at up to 33%.
In order to prepare a saturated solution of bethanechol chloride the following method was used. A magnetic flea was placed into a 20 ml scintillation vial and the weight of both was recorded. Exactly 0.8 g of the pH 5.5 buffer solution was placed into the container. […] Once the saturated solution (containing un-dissolved bethanechol) had been achieved, the vial was placed onto a balance and the total weight recorded. […] The amounts of ethanol, glycerol and PEG 400 were calculated to make a solution containing 30% PEG 400, 30% glycerol, 20% ethanol and 20% buffer and bethanechol. […]
Saliva production data were analysed by repeated measures two-way ANOVA followed by Bonferronis post tests (GraphPad Prism version 5.0, GraphPad Software, San Diego, Calif., USA). […]

rats [2] = experiment: cardiovascular and respiratory parameters after application to the buccal cavity of anaesthetised rats; assay type: in vivo, rat
Text: as §1

patients with xerostomia = experiment: clinical study in patients with xerostomia, buccal solution versus placebo; assay type: in vivo, human; settings: approximately 0.5 ml solution retained against the buccal mucosa for 1 to 2 minutes and then swallowed, crossover versus placebo
Protocol: A cohort of approximately 20 patients with xerostomia is randomised to receive either placebo or bethanechol formulation or vice versa with at least 3 days washout between the treatment segments. Each treatment is given as a small volume (approximately 0.5 ml) solution to be retained against the buccal mucosa for 1 to 2 minutes and then swallowed. Clinical investigations include vital signs, haematology/chemistry and appearance of the buccal mucosa. Efficacy measurements include salivary flow and composition of major and minor glands using standard techniques (see e.g. Ferguson 1999, Archives of Oral Biol., 44:S11-S14; Boros et al., Archives of Oral Biol., 44:S59-S62) and the assessment of subjective oral dryness/comfort using validated measures (see e.g. Chainani-Wu et al., 2006, Spec. Care Dentist 26(4):164-170).

[3] = buccal, 10 microliters each on left and right sides, recorded over 90 minutes, physostigmine 1% (n=2), bethanechol saturated solution (n=3)

SMILES | heart rate decrease (rats [1]; 0.3 micrograms/kg, in saline) | mean arterial pressure decrease (rats [1]; 0.3 micrograms/kg, in saline) | heart rate decrease (rats [1]; 300 micrograms/kg, in saline) | mean arterial pressure decrease (rats [1]; 300 micrograms/kg, in saline) | pulmonary inflation pressure increase (rats [1]; 300 micrograms/kg, in saline) | dose at which increases in pulmonary inflation pressure were seen (rats [1]; ascending doses 0.3 to 300 micrograms/kg) | salivary output (male Sprague-Dawley rats; applied topically, for up to 70 minutes) | increase of total saliva production above vehicle effect (male Sprague-Dawley rats; 10 microliters on each side of the mouth, 70 minute collection period, P less than 0.01, n=4) | heart rate, mean maximum effect (decrease) (rats [2]; rat, in vivo) | mean arterial pressure, mean maximum effect (decrease) (rats [2]; rat, in vivo) | pulmonary inflation pressure, mean maximum effect (increase) (rats [2]; rat, in vivo) | salivary flows (patients with xerostomia) | subjective oral dryness/comfort scores (patients with xerostomia) | heart rate, mean maximum effect (decrease) (rats [2]; [3]) | mean arterial pressure, mean maximum effect (decrease) (rats [2]; [3]) | pulmonary inflation pressure, mean maximum effect (increase) (rats [2]; [3])
CC(C[N+](C)(C)C)OC(N)=O (stereo not shown) [bethanechol, Bethanechol chloride] | 6% | 31% | 69% | 72% | 30% | ≥ 3 micrograms/kg | sustained and significant increase | 72% | 1% | 3% | 0% | increase salivary flows | improve subjective oral dryness/comfort scores | – | – | –
CNC(=O)Oc1ccc2c(c1)[C@]1(C)CCN(C)[C@@H]1N2C [physostigmine] | – | – | – | – | – | – | – | – | – | – | – | – | – | 9.3% | 17% | 44%

Source: patent US10137084B2, “Use of bethanechol for treatment of xerostomia” (priority 2009, dated 2018)
